Values joined by “and” are separate entries in the source; they are usually repeats but may differ in a detail not shown here. Equal values may be shown once. Toxic doses and inconclusive results are not listed. No stated cut-off is given here; in the data, active means T/C of 150% or more; inactive means T/C below 125%.
Test system: L1210 leukemia ip in BDF1 mice, survival T/C
Assay: NCI In Vivo Anticancer Drug Screen. Data for tumor model L1210 Leukemia (intraperitoneal) in B6D2F1 (BDF1) mice
Conditions: endpoint: mean survival time, higher = longer survival
How it was run: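 Tumor was transplanted into mice, which were then dosed with test compound or vehicle alone. Survival was recorded for each group, and the treated figure was expressed relative to the control figure.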

[1] = dose: 100.0 mg/kg/injection, schedule: Q04DX003 (ip), vehicle: saline
[2] = dose: 100.0 mg/kg/injection, schedule: Q01DX009 (ip), vehicle: saline with Tween-80
[3] = dose: 200.0 mg/kg/injection, schedule: Q01DX009 (ip), vehicle: saline with Tween-80
[4] = dose: 100.0 mg/kg/injection, schedule: Q01DX001 (ip), vehicle: carboxymethylcellulose (CMC)
[5] = dose: 200.0 mg/kg/injection, schedule: Q01DX001 (ip), vehicle: carboxymethylcellulose (CMC)
[6] = dose: 400.0 mg/kg/injection, schedule: Q01DX001 (ip), vehicle: carboxymethylcellulose (CMC)
[7] = dose: 100.0 mg/kg/injection, schedule: Q01DX001 (ip), vehicle: saline
[8] = dose: 100.0 mg/kg/injection, schedule: Q01DX009 (ip), vehicle: saline
[9] = dose: 100.0 mg/kg/injection, schedule: Q04DX003 (ip), vehicle: Klucel (hydroxypropylcellulose) (HPC)
[10] = dose: 200.0 mg/kg/injection, schedule: Q04DX003 (ip), vehicle: Klucel (hydroxypropylcellulose) (HPC)
[11] = dose: 400.0 mg/kg/injection, schedule: Q04DX003 (ip), vehicle: Klucel (hydroxypropylcellulose) (HPC)
[12] = dose: 100.0 mg/kg/injection, schedule: Q01DX001 (ip), vehicle: Klucel (hydroxypropylcellulose) (HPC)
[13] = dose: 200.0 mg/kg/injection, schedule: Q01DX001 (ip), vehicle: Klucel (hydroxypropylcellulose) (HPC)
[14] = dose: 400.0 mg/kg/injection, schedule: Q01DX001 (ip), vehicle: Klucel (hydroxypropylcellulose) (HPC)
[15] = dose: 100.0 mg/kg/injection, schedule: Q04DX002 (ip), vehicle: Klucel (hydroxypropylcellulose) (HPC)
[16] = dose: 200.0 mg/kg/injection, schedule: Q04DX002 (ip), vehicle: Klucel (hydroxypropylcellulose) (HPC)
[17] = dose: 400.0 mg/kg/injection, schedule: Q04DX002 (ip), vehicle: Klucel (hydroxypropylcellulose) (HPC)
[18] = dose: 200.0 mg/kg/injection, schedule: Q04DX003 (ip), vehicle: saline
[19] = dose: 400.0 mg/kg/injection, schedule: Q04DX003 (ip), vehicle: saline
[20] = dose: 100.0 mg/kg/injection, schedule: Q04DX003 (ip), vehicle: saline with Tween-80
[21] = dose: 200.0 mg/kg/injection, schedule: Q04DX003 (ip), vehicle: saline with Tween-80
[22] = dose: 400.0 mg/kg/injection, schedule: Q04DX003 (ip), vehicle: saline with Tween-80
[23] = dose: 50.0 mg/kg/injection, schedule: Q01DX009 (ip), vehicle: saline
[24] = dose: 100.0 mg/kg/injection, schedule: Q04DX002 (ip), vehicle: saline with Tween-80
[25] = dose: 200.0 mg/kg/injection, schedule: Q04DX002 (ip), vehicle: saline with Tween-80
[26] = dose: 100.0 mg/kg/injection, schedule: Q01DX009 (ip), vehicle: Klucel (hydroxypropylcellulose) (HPC)
[27] = dose: 200.0 mg/kg/injection, schedule: Q01DX009 (ip), vehicle: Klucel (hydroxypropylcellulose) (HPC)
[28] = dose: 400.0 mg/kg/injection, schedule: Q01DX009 (ip), vehicle: Klucel (hydroxypropylcellulose) (HPC)

Measured: T/C

CC(C)=CCC/C(C)=C\CN=C1C=CC(=O)O1
inactive: dose: 25.0 mg/kg/injection, schedule: Q01DX009 (ip), vehicle: saline + alcohol 97 % of control | dose: 25.0 mg/kg/injection, schedule: Q04DX003 (ip), vehicle: other 107 % of control | dose: 50.0 mg/kg/injection, schedule: Q01DX009 (ip), vehicle: saline + alcohol 90 % of control | dose: 50.0 mg/kg/injection, schedule: Q04DX003 (ip), vehicle: other 107 % of control | dose: 100.0 mg/kg/injection, schedule: Q04DX003 (ip), vehicle: other 121 % of control | [1] 91 % of control

NC(=O)C(Cc1cnc[nH]1)NC(=O)OCc1ccccc1 (stereo not given)
inactive: [2] 91 % of control | [3] 96 % of control | dose: 400.0 mg/kg/injection, schedule: Q01DX009 (ip), vehicle: saline with Tween-80 105 % of control

O=C(O)c1cc(O)ccc1N=Nc1ccccc1
inactive: [4] 95 % of control | [5] 95 % of control | [6] 98 % of control

C=NC
inactive: [7] 105 % of control | [1] 103 % of control

O=C1c2ccccc2C(Br)(c2ccccc2)C1Br (stereo not given)
inactive: dose: 12.5 mg/kg/injection, schedule: Q01DX009 (ip), vehicle: other 93 % of control | dose: 25.0 mg/kg/injection, schedule: Q01DX009 (ip), vehicle: other 89 % of control

NC(Cc1c[nH]c2ccccc12)C(=O)O (stereo not given)
inactive: dose: 100.0 mg/kg/injection, schedule: Q01DX001 (ip), vehicle: saline with Tween-80 95 % of control | [8] 100 % of control | dose: 200.0 mg/kg/injection, schedule: Q01DX001 (ip), vehicle: saline with Tween-80 98 % of control | dose: 200.0 mg/kg/injection, schedule: Q01DX009 (ip), vehicle: saline 94 % of control | dose: 300.0 mg/kg/injection, schedule: Q01DX001 (ip), vehicle: saline with Tween-80 92 % of control | dose: 400.0 mg/kg/injection, schedule: Q01DX009 (ip), vehicle: saline 94 % of control | dose: 800.0 mg/kg/injection, schedule: Q01DX009 (ip), vehicle: saline 94 % of control

Cc1ccc(C(=O)C2CC2c2ccccc2)cc1 (stereo not given)
inactive: [9] 101 % of control | [10] 101 % of control | [11] 95 % of control

CC(C=O)C=O
inactive: [12] 91 % of control | [13] 88 % of control | [14] 89 % of control

O=C1c2ccccc2C(=O)N1CC#CCN1C(=O)c2ccccc2C1=O
inactive: [15] 102 % of control | [16] 91 % of control | [17] 112 % of control

CC12CCC(CC(=O)O1)C2(C)C (stereo not given)
inactive: dose: 75.0 mg/kg/injection, schedule: Q01DX001 (ip), vehicle: saline 114 % of control

CS(=O)CCNC(=O)NS(=O)(=O)c1ccc(Cl)cc1 (stereo not given)
inactive: [1] 97 % of control | [18] 98 % of control | [19] 108 % of control

N#CC(=N)N1CCCCC1
inactive: [1] 98 % of control | [18] 112 % of control | [19] 109 % of control

ClCCOC(OCCCl)OCCCl
inactive: [2] 105 % of control | [20] 103 % of control | [3] 87 % of control | [21] 104 % of control | [22] 95 % of control

COc1cc2cc[n+]3c(C)c4cc5c(cc4cc3c2cc1OC)OCO5 (tested in a mixture with another compound)
inactive: dose: 2.5 mg/kg/injection, schedule: Q01DX009 (ip), vehicle: saline 109 % of control | dose: 5.0 mg/kg/injection, schedule: Q01DX009 (ip), vehicle: saline 103 % of control | [23] 97 % of control

Cc1cc(C)cc(OC(=O)Nc2ccccc2C)c1
inactive: [24] 106 % of control | [25] 91 % of control

O=C(O)c1cccc(C(=O)c2ccccc2)c1O
inactive: [4] 97 % of control | [5] 100 % of control | [6] 92 % of control

CCOC(=O)CSC(=S)N(C)C
inactive: [12] 102 % of control | [26] 95 % of control and 96 % of control and 111 % of control | [15] 102 % of control and 106 % of control | [9] 101 % of control | [13] 102 % of control | [27] 97 % of control and 104 % of control and 89 % of control | [16] 102 % of control and 103 % of control | [10] 93 % of control | [14] 96 % of control | [28] 89 % of control | [17] 103 % of control and 104 % of control | [11] 93 % of control

C/C(=N/Nc1ccc([N+](=O)[O-])cc1)c1ccncc1
inactive: dose: 50.0 mg/kg/injection, schedule: Q01DX009 (ip), vehicle: Klucel (hydroxypropylcellulose) (HPC) 101 % of control | [26] 111 % of control | [27] 89 % of control | [28] 105 % of control

Cc1cccc2c1sc1c(C)cc(C(=O)CCC(=O)O)cc12
inactive: [7] 94 % of control | dose: 200.0 mg/kg/injection, schedule: Q01DX001 (ip), vehicle: saline 89 % of control | dose: 400.0 mg/kg/injection, schedule: Q01DX001 (ip), vehicle: saline 97 % of control

CNCC1C=CCCC1 (stereo not given)
inactive: dose: 100.0 mg/kg/injection, schedule: Q04DX002 (ip), vehicle: saline 93 % of control | dose: 200.0 mg/kg/injection, schedule: Q04DX002 (ip), vehicle: saline 100 % of control

O=NN(CCCl)C(=O)Nc1ccc(F)cc1
active: dose: 9.37 mg/kg/injection, schedule: Q01DX001 (ip), vehicle: carboxymethylcellulose (CMC) 150 % of control | dose: 12.5 mg/kg/injection, schedule: Q01DX001 (ip), vehicle: carboxymethylcellulose (CMC) 162 % of control | dose: 18.75 mg/kg/injection, schedule: Q01DX001 (ip), vehicle: carboxymethylcellulose (CMC) 171 % of control | dose: 25.0 mg/kg/injection, schedule: Q01DX001 (ip), vehicle: carboxymethylcellulose (CMC) 253 % of control | dose: 37.5 mg/kg/injection, schedule: Q01DX001 (ip), vehicle: carboxymethylcellulose (CMC) 171 % of control

O=C(OCc1ccccc1CN1CCOCC1)c1cccc(Cl)c1
inactive: [15] 92 % of control | [16] 92 % of control | [17] 95 % of control

O=C(OC1CCOCC1OC(=O)c1ccccc1)c1ccccc1 (stereo not given)
inactive: [24] 100 % of control | [25] 100 % of control | dose: 400.0 mg/kg/injection, schedule: Q04DX002 (ip), vehicle: saline with Tween-80 96 % of control

CCOC(=O)c1cnc(SC)nc1N(C)C
inactive: [20] 96 % of control | [21] 96 % of control

O/C=C(\Cl)CCl
inactive: dose: 50.0 mg/kg/injection, schedule: Q01DX001 (ip), vehicle: saline 100 % of control | [23] 107 % of control and 108 % of control | dose: 50.0 mg/kg/injection, schedule: Q04DX002 (ip), vehicle: saline 97 % of control and 106 % of control | dose: 50.0 mg/kg/injection, schedule: Q04DX003 (ip), vehicle: saline 97 % of control | [7] 90 % of control | [8] 101 % of control and 104 % of control | [1] 106 % of control

O=C1NCC(O)CN1
inactive: dose: 29.0 mg/kg/injection, schedule: Q01DX Z (ip), vehicle: methylcellulose (MC) 96 % of control | dose: 45.0 mg/kg/injection, schedule: Q01DX Z (ip), vehicle: methylcellulose (MC) 96 % of control | dose: 67.0 mg/kg/injection, schedule: Q01DX Z (ip), vehicle: methylcellulose (MC) 108 % of control | dose: 100.0 mg/kg/injection, schedule: Q01DX Z (ip), vehicle: methylcellulose (MC) 104 % of control

CSCc1cnc(N)nc1-c1ccccc1
inactive: [20] 105 % of control | [21] 97 % of control | [22] 105 % of control

— PubChem BioAssay AID248 (DTP/NCI, 2004)
